ChEMBL document CHEMBL5058646 (2022)

Tests used:
[1] = target: T1, Zinc finger and BTB domain-containing protein 10 (Homo sapiens) (UniProt Q96DT7); conditions: SUD4, Compound concentration 1.0 uM
T1 sequence (whole entry): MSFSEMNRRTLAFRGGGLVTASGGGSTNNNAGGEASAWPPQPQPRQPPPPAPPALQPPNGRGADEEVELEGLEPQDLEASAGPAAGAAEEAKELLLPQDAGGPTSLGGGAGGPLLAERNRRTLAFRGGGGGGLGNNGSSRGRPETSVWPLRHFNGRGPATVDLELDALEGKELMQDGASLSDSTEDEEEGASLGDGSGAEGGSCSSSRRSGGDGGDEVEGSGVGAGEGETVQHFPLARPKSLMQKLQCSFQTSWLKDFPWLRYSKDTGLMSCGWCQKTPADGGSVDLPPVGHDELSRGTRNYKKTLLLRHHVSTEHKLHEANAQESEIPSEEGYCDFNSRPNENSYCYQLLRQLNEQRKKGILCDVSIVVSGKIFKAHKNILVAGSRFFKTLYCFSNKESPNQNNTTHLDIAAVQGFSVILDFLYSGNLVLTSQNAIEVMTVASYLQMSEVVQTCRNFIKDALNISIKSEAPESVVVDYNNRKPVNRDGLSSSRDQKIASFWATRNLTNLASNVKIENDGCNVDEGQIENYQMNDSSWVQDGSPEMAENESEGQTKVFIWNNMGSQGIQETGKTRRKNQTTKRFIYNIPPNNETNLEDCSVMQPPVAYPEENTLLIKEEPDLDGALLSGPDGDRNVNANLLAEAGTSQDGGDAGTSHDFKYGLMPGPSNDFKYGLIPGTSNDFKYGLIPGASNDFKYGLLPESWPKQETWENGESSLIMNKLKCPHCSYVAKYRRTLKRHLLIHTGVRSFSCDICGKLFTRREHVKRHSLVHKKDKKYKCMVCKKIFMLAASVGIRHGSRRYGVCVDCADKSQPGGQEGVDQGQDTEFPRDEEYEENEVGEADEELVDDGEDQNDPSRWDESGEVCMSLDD

[2] = target: Ephrin type-A receptor 7 (Homo sapiens) (UniProt Q15375); assay: EPHA7 SGC Tm panel (DSF); conditions: Compound concentration 20.0 uM
[3] = target: T2, Zinc finger and BTB domain-containing protein 1 (Homo sapiens) (UniProt Q9Y2K1); conditions: OCI-Ly1, Compound concentration 1.0 uM
T2 sequence (whole entry): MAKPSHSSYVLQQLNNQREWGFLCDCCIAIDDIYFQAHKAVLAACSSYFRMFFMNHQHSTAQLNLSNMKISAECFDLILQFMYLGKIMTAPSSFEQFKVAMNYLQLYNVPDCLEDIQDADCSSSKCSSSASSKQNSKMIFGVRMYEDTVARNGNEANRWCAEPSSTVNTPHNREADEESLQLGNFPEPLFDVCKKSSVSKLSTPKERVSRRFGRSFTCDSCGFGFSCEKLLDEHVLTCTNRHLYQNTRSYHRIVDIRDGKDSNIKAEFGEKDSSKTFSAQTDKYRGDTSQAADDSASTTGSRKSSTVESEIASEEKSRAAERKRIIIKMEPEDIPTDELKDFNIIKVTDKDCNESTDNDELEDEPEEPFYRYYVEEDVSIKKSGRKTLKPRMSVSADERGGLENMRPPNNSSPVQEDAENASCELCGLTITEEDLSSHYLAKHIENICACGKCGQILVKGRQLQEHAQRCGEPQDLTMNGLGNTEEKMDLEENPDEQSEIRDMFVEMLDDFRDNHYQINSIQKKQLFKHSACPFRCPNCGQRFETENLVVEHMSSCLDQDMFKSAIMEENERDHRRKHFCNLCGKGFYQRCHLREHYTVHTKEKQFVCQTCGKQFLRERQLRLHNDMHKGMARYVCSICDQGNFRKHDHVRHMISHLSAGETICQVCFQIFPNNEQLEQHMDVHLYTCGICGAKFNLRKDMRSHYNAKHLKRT

[4] = target: T1, Zinc finger and BTB domain-containing protein 10 (Homo sapiens); conditions: OCI-Ly1, Compound concentration 1.0 uM
[5] = target: T3, Transcriptional regulator Kaiso (Homo sapiens) (UniProt Q86T24); conditions: OCI-Ly1, Compound concentration 1.0 uM
T3 sequence (whole entry): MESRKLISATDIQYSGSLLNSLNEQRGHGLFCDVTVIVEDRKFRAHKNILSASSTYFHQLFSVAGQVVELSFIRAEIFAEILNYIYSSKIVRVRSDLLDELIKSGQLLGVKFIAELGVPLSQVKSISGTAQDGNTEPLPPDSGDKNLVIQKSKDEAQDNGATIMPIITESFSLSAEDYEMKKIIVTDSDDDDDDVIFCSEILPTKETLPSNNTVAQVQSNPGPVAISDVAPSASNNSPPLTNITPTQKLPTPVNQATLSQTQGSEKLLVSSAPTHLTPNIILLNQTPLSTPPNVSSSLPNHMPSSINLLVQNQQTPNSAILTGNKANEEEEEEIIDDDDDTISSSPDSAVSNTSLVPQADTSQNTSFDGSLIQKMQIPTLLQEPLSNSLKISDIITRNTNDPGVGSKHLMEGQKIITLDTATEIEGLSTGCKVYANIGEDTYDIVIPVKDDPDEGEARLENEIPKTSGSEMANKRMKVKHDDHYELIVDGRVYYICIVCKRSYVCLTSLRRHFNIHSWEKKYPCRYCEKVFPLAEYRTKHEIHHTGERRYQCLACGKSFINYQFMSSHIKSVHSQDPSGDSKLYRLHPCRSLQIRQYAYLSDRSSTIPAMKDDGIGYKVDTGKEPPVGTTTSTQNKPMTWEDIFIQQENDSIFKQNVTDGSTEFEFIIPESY

[6] = target: T2, Zinc finger and BTB domain-containing protein 1 (Homo sapiens); conditions: SUD4, Compound concentration 1.0 uM

Chain of Ephrin type-A receptor 7 (Homo sapiens) (Q15375 28-998 limits assumed): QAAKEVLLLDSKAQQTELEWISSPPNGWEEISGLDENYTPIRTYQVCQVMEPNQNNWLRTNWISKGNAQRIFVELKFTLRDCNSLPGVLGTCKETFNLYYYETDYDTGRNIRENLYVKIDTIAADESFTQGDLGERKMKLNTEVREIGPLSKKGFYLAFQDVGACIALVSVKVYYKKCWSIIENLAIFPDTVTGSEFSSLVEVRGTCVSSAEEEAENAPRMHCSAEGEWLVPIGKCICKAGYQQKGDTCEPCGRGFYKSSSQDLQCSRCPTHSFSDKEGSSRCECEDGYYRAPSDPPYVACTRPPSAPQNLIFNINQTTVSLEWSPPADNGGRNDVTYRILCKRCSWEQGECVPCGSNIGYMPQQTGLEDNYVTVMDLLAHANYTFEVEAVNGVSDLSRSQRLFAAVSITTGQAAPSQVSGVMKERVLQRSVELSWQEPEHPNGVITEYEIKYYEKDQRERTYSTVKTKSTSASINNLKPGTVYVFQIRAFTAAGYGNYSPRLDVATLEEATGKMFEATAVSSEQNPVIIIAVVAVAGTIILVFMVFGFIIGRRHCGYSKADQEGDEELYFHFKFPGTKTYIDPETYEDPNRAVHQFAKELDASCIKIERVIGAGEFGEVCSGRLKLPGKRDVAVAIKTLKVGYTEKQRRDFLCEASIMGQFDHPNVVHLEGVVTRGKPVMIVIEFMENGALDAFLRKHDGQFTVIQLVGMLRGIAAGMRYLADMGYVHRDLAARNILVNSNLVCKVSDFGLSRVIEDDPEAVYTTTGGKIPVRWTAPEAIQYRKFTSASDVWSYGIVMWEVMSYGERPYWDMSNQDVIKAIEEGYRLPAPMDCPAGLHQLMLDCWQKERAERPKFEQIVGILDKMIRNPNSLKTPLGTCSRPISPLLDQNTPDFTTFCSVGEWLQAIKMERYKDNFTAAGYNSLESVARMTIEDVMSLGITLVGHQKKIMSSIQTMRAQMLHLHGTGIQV

LogFC [1]: 0.0283
Tm [2]: 48 °C
LogFC [3]: -0.0612
LogFC [4]: 0.103
LogFC [5]: -0.0964
LogFC [6]: 0.0235
SMILES: C[C@@H]1CN(c2ncc(Cl)c(Nc3ccc4c(c3)n(CCC(C)(C)O)c(=O)n4C)n2)C[C@H](C)C1(F)F
